The molecules below were run on MCF7 cells (assay: Anti-proliferation (viability) of MCF7 cells (Table 7, FIG. 2B)). Settings: Homo sapiens, MCF7, MCF7 cells, 3-6 days, 10-point serial dilution; read-out: GI IC50 in MCF-7.
Format: cell-based
`CNc1ccc(C(=O)Nc2ccc(N(C)C)nn2)c(NC2CC(n3cc(CN4CCN(c5ccc(Nc6ncc7c(C)c(C(C)=O)c(=O)n(C8CCCC8)c7n6)nc5)CC4)nn3)C2)n1` (stereo not drawn) [CPD-335, 2-((3-(4-((4-(6-((6-acetyl-8-cyclopentyl-5-methyl-7-oxo-7,8-dihydropyrido[2,3-d]pyrimidin-2-yl)amino)pyridin-3-yl)piperazin-1-yl)methyl)-1H-1,2,3-triazol-1-yl)cyclobutyl)amino)-N-(6-(dimethylamino)pyridazin-3-yl)-6-(methylamino)nicotinamide] was tested, and the IC50 was over 100 nM.
`CNc1ccc(C(=O)Nc2ccc(N(C)C)nn2)c(N[C@H]2C[C@@H](CN3CCC(CN4CCN(c5ccc(Nc6ncc7c(C)c(C(C)=O)c(=O)n(C8CCCC8)c7n6)nc5)CC4)C3)C2)n1` (stereo partly drawn) [CPD-336] gave an IC50 of over 100 nM.
`CNc1ccc(C(=O)Nc2ccc(N(C)C)nn2)c(NC2CC(C(=O)N3CCC4(CC3)CCN(c3ccc(Nc5ncc6c(C)c(C(C)=O)c(=O)n(C7CCCC7)c6n5)nc3)CC4)C2)n1` (stereo not drawn) [CPD-337, 2-((3-(9-(6-((6-acetyl-8-cyclopentyl-5-methyl-7-oxo-7,8-dihydropyrido[2,3-d]pyrimidin-2-yl)amino)pyridin-3-yl)-3,9-diazaspiro[5.5]undecane-3-carbonyl)cyclobutyl)amino)-N-(6-(dimethylamino)pyridazin-3-yl)-6-(methylamino)nicotinamide] showed an IC50 of over 100 nM.
`[2H]C([2H])([2H])Nc1ccc(C(=O)Nc2cn(C)c(C3CC3)n2)c(NC2CC3(C2)CN(C(=O)CC(C)N2CCN(c4ccc(Nc5ncc6c(C)c(C(C)=O)c(=O)n(C7CCCC7)c6n5)nc4)CC2)C3)n1` (stereo not drawn) [CPD-339, 2-((2-(3-(4-(6-((6-acetyl-8-cyclopentyl-5-methyl-7-oxo-7,8-dihydropyrido[2,3-d]pyrimidin-2-yl)amino)pyridin-3-yl)piperazin-1-yl)butanoyl)-2-azaspiro[3.3]heptan-6-yl)amino)-N-(2-cyclopropyl-1-methyl-1H-imidazol-4-yl)-6-((methyl-d3)amino)nicotinamide] was tested, and the IC50 was 50 to 100 nM.
For `CNc1ccc(C(=O)Nc2cn(C)c(C(C)(C)O)n2)c(NC2CC3(CC(NC(=O)CN4CCN(c5ccc(Nc6ncc7c(C)c(C(C)=O)c(=O)n(C8CCCC8)c7n6)nc5)CC4)C3)C2)n1` (stereo not drawn) [CPD-340, 2-((6-(2-(4-(6-((6-acetyl-8-cyclopentyl-5-methyl-7-oxo-7,8-dihydropyrido[2,3-d]pyrimidin-2-yl)amino)pyridin-3-yl)piperazin-1-yl)acetamido)spiro[3.3]heptan-2-yl)amino)-N-(2-(2-hydroxypropan-2-yl)-1-methyl-1H-imidazol-4-yl)-6-(methylamino)nicotinamide], the IC50 was over 100 nM.
For `[2H]C([2H])([2H])Nc1ccc(C(=O)Nc2ccc(N(C)C)nn2)c(NC2CC(CNC(=O)CN3CCN(c4ccc(Nc5ncc6c(C)c(C(C)=O)c(=O)n(C7CCCC7)c6n5)nc4)CC3)C2)n1` (stereo not drawn) [CPD-343, 2-((3-((2-(4-(6-((6-acetyl-8-cyclopentyl-5-methyl-7-oxo-7,8-dihydropyrido[2,3-d]pyrimidin-2-yl)amino)pyridin-3-yl)piperazin-1-yl)acetamido)methyl)cyclobutyl)amino)-N-(6-(dimethylamino)pyridazin-3-yl)-6-((methyl-d3)amino)nicotinamide], the IC50 was 50 to 100 nM.
In the case of `CNc1ccc(C(=O)Nc2ccc(N(C)C)nn2)c(NCC2(F)CN(C(=O)CN3CCN(c4ccc(Nc5ncc6c(C)c(C(C)=O)c(=O)n(C7CCCC7)c6n5)nc4)CC3)C2)n1` [CPD-344, 2-(((1-(2-(4-(6-((6-acetyl-8-cyclopentyl-5-methyl-7-oxo-7,8-dihydropyrido[2,3-d]pyrimidin-2-yl)amino)pyridin-3-yl)piperazin-1-yl)acetyl)-3-fluoroazetidin-3-yl)methyl)amino)-N-(6-(dimethylamino)pyridazin-3-yl)-6-(methylamino)nicotinamide], the IC50 is reported as over 100 nM.
With `CNc1ccc(C(=O)Nc2ccc(N(C)C)nn2)c(NCC23CC(NC(=O)CN4CCN(c5ccc(Nc6ncc7c(C)c(C(C)=O)c(=O)n(C8CCCC8)c7n6)nc5)CC4)(C2)C3)n1` [CPD-345, 2-(((3-(2-(4-(6-((6-acetyl-8-cyclopentyl-5-methyl-7-oxo-7,8-dihydropyrido[2,3-d]pyrimidin-2-yl)amino)pyridin-3-yl)piperazin-1-yl)acetamido)bicyclo[1.1.1]pentan-1-yl)methyl)amino)-N-(6-(dimethylamino)pyridazin-3-yl)-6-(methylamino)nicotinamide] the IC50 was over 100 nM.
`CNc1ccc(C(=O)Nc2ccc(N(C)C)nn2)c(NC23CC(NC(=O)CN4CCN(c5ccc(Nc6ncc7c(C)c(C(C)=O)c(=O)n(C8CCCC8)c7n6)nc5)CC4)(C2)C3)n1` [CPD-346, 2-((3-(2-(4-(6-((6-acetyl-8-cyclopentyl-5-methyl-7-oxo-7,8-dihydropyrido[2,3-d]pyrimidin-2-yl)amino)pyridin-3-yl)piperazin-1-yl)acetamido)bicyclo[1.1.1]pentan-1-yl)amino)-N-(6-(dimethylamino)pyridazin-3-yl)-6-(methylamino)nicotinamide] gave an IC50 of over 100 nM.
Work on `CNc1ccc(C(=O)Nc2cn(C)c(C3CC3)n2)c(NC2CCC3(CC2)CC(NC(=O)CN2CCN(c4ccc(Nc5ncc6c(C)c(C(C)=O)c(=O)n(C7CCCC7)c6n5)nc4)CC2)C3)n1` (stereo not drawn) [CPD-347, 2-((2-(2-(4-(6-((6-acetyl-8-cyclopentyl-5-methyl-7-oxo-7,8-dihydropyrido[2,3-d]pyrimidin-2-yl)amino)pyridin-3-yl)piperazin-1-yl)acetamido)spiro[3.5]nonan-7-yl)amino)-N-(2-cyclopropyl-1-methyl-1H-imidazol-4-yl)-6-(methylamino)nicotinamide] yielded an IC50 of over 100 nM.
`CNc1ccc(C(=O)Nc2ccc(N(C)C)nn2)c(NC2CC3(C2)CN(C(=O)C2CC(N4CCN(c5ccc(Nc6ncc7c(C)c(C(C)=O)c(=O)n(C8CCCC8)c7n6)nc5)CC4)C2)C3)n1` (stereo not drawn) [CPD-348, 2-((2-(3-(4-(6-((6-acetyl-8-cyclopentyl-5-methyl-7-oxo-7,8-dihydropyrido[2,3-d]pyrimidin-2-yl)amino)pyridin-3-yl)piperazin-1-yl)cyclobutane-1-carbonyl)-2-azaspiro[3.3]heptan-6-yl)amino)-N-(6-(dimethylamino)pyridazin-3-yl)-6-(methylamino)nicotinamide] showed an IC50 of over 100 nM.
For `CC(=O)c1c(C)c2cnc(Nc3ccc(N4CCN(CC(=O)NC5CC6(C5)CC(Nc5nc(C(C)O)ccc5C(=O)Nc5cn(C)c(C7CC7)n5)C6)CC4)cn3)nc2n(C2CCCC2)c1=O` (stereo not drawn) [CPD-349, 2-((6-(2-(4-(6-((6-acetyl-8-cyclopentyl-5-methyl-7-oxo-7,8-dihydropyrido[2,3-d]pyrimidin-2-yl)amino)pyridin-3-yl)piperazin-1-yl)acetamido)spiro[3.3]heptan-2-yl)amino)-N-(2-cyclopropyl-1-methyl-1H-imidazol-4-yl)-6-(1-hydroxyethyl)nicotinamide], the IC50 was over 100 nM.
Molecule `CNc1ccc(C(=O)Nc2ccc(N(C)C)nn2)c(NC2CCC(C(=O)N3CCC4(CC3)CCN(c3ccc(Nc5ncc6c(C)c(C(C)=O)c(=O)n(C7CCCC7)c6n5)nc3)CC4)CC2)n1` (stereo not drawn) [CPD-350, 2-((4-(9-(6-((6-acetyl-8-cyclopentyl-5-methyl-7-oxo-7,8-dihydropyrido[2,3-d]pyrimidin-2-yl)amino)pyridin-3-yl)-3,9-diazaspiro[5.5]undecane-3-carbonyl)cyclohexyl)amino)-N-(6-(dimethylamino)pyridazin-3-yl)-6-(methylamino)nicotinamide] has an IC50 of over 100 nM.
`CNc1ccc(C(=O)Nc2ccc(N(C)C)nn2)c(NC2CCC(C(=O)N3CC4(CCN(c5ccc(Nc6ncc7c(C)c(C(C)=O)c(=O)n(C8CCCC8)c7n6)nc5)CC4)C3)CC2)n1` (stereo not drawn) [CPD-351, 2-((4-(7-(6-((6-acetyl-8-cyclopentyl-5-methyl-7-oxo-7,8-dihydropyrido[2,3-d]pyrimidin-2-yl)amino)pyridin-3-yl)-2,7-diazaspiro[3.5]nonane-2-carbonyl)cyclohexyl)amino)-N-(6-(dimethylamino)pyridazin-3-yl)-6-(methylamino)nicotinamide] was tested, and the IC50 was over 100 nM.
With `CC(=O)c1c(C)c2cnc(Nc3ccc(N4CCN(CC(=O)NC5CC6(C5)CC(Nc5nc(C(C)(C)O)ccc5C(=O)Nc5cn(C)c(C7CC7)n5)C6)CC4)cn3)nc2n(C2CCCC2)c1=O` (stereo not drawn) [CPD-352, 2-((6-(2-(4-(6-((6-acetyl-8-cyclopentyl-5-methyl-7-oxo-7,8-dihydropyrido[2,3-d]pyrimidin-2-yl)amino)pyridin-3-yl)piperazin-1-yl)acetamido)spiro[3.3]heptan-2-yl)amino)-N-(2-cyclopropyl-1-methyl-1H-imidazol-4-yl)-6-(2-hydroxypropan-2-yl)nicotinamide] the IC50 was over 100 nM.
`[2H]C([2H])([2H])Nc1ccc(C(=O)Nc2cc(C)n(C)n2)c(NC2CC(C(C)NC(=O)CN3CCN(c4ccc(Nc5ncc6c(C)c(C(C)=O)c(=O)n(C7CCCC7)c6n5)nc4)CC3)C2)n1` (stereo not drawn) [CPD-353, 2-((3-(1-(2-(4-(6-((6-acetyl-8-cyclopentyl-5-methyl-7-oxo-7,8-dihydropyrido[2,3-d]pyrimidin-2-yl)amino)pyridin-3-yl)piperazin-1-yl)acetamido)ethyl)cyclobutyl)amino)-N-(1,5-dimethyl-1H-pyrazol-3-yl)-6-((methyl-d3)amino)nicotinamide] was tested, and the IC50 was over 100 nM.
`CNc1ccc(C(=O)Nc2ccc(N(C)C)nn2)c(NCC2COC3(C2)CN(C(=O)CN2CCN(c4ccc(Nc5ncc6c(C)c(C(C)=O)c(=O)n(C7CCCC7)c6n5)nc4)CC2)C3)n1` (stereo not drawn) [CPD-354, 2-(((2-(2-(4-(6-((6-acetyl-8-cyclopentyl-5-methyl-7-oxo-7,8-dihydropyrido[2,3-d]pyrimidin-2-yl)amino)pyridin-3-yl)piperazin-1-yl)acetyl)-5-oxa-2-azaspiro[3.4]octan-7-yl)methyl)amino)-N-(6-(dimethylamino)pyridazin-3-yl)-6-(methylamino)nicotinamide] was tested, and the IC50 was over 100 nM.
`CC(=O)c1c(C)c2cnc(Nc3ccc(N4CCN(C(C)CC(=O)N5CC(Nc6nc(NC(C)C)ccc6C(=O)Nc6ccc(N(C)C)nn6)C5)CC4)cn3)nc2n(C2CCCC2)c1=O` (stereo not drawn) [CPD-355, 2-((1-(3-(4-(6-((6-acetyl-8-cyclopentyl-5-methyl-7-oxo-7,8-dihydropyrido[2,3-d]pyrimidin-2-yl)amino)pyridin-3-yl)piperazin-1-yl)butanoyl)azetidin-3-yl)amino)-N-(6-(dimethylamino)pyridazin-3-yl)-6-(isopropylamino)nicotinamide] showed an IC50 of 50 to 100 nM.
